Measured values taken from ChEMBL document CHEMBL5291721, “A preclinical secondary pharmacology resource illuminates target-adverse drug reaction associations of marketed drugs” (Nat Commun, 2023).

What was measured:
[1] = target: T1, 5-hydroxytryptamine receptor 1A (Homo sapiens, UniProt P08908)
T1 sequence (P08908 whole entry): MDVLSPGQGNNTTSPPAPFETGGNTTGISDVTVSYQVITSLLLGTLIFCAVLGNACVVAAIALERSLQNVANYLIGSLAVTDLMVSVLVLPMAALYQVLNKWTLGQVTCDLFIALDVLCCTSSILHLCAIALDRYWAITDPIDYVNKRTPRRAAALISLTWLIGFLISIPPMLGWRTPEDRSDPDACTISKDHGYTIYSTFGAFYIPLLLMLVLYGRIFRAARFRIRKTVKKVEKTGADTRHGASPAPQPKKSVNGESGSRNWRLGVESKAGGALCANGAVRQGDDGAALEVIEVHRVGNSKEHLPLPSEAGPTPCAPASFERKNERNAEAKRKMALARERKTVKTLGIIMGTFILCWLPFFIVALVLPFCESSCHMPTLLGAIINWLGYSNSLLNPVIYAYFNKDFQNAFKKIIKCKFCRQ

[2] = target: T2, Alpha-2A adrenergic receptor (Homo sapiens, UniProt P08913)
T2 sequence (P08913 whole entry): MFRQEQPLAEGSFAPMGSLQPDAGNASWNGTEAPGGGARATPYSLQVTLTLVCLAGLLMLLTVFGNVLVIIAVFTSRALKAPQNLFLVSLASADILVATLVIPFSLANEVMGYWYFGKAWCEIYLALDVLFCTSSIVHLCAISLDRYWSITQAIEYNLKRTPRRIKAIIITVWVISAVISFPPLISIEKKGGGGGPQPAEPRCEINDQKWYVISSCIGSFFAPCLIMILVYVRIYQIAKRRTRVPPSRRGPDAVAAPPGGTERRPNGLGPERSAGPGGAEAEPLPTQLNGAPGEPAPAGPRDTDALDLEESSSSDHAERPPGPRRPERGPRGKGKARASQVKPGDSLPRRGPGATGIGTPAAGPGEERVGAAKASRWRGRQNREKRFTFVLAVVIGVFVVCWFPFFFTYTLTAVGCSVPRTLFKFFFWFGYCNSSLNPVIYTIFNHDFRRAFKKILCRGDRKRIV

[3] = target: T3, Amine oxidase [flavin-containing] A (Homo sapiens, UniProt P21397); format: functional
T3 sequence (P21397 whole entry): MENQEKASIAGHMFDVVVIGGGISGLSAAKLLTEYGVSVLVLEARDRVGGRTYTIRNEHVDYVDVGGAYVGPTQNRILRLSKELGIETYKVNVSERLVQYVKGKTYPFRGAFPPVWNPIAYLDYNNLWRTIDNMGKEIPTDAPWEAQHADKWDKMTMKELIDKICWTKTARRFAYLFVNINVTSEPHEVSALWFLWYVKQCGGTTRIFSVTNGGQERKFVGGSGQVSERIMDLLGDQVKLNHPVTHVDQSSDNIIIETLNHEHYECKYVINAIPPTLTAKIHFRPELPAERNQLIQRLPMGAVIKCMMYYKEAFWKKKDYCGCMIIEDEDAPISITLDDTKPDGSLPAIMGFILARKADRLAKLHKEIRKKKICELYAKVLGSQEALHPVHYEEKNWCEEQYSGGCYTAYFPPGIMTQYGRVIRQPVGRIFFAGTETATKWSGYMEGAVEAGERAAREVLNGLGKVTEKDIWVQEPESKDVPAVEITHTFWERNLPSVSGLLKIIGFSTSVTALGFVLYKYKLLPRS

[4] = target: Sodium-dependent noradrenaline transporter (Homo sapiens, UniProt P23975)
[5] = target: Sodium-dependent dopamine transporter (Homo sapiens, UniProt Q01959)
[6] = target: T4, Muscarinic acetylcholine receptor M2 (Homo sapiens, UniProt P08172)
T4 sequence (P08172 whole entry): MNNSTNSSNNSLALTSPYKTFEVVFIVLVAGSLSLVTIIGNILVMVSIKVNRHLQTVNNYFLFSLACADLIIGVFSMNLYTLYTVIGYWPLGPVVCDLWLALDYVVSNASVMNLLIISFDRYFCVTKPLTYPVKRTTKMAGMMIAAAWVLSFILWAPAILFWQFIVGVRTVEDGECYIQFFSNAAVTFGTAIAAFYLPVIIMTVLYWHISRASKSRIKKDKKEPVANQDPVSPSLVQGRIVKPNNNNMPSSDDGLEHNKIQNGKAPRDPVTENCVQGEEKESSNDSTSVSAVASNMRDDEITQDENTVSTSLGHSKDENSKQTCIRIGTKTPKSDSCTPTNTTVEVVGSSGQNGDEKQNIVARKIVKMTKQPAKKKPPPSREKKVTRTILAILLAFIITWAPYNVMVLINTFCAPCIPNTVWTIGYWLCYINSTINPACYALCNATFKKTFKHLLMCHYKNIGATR

D(3) dopamine receptor = D(3) dopamine receptor (Homo sapiens, UniProt P35462)
D(1A) dopamine receptor = D(1A) dopamine receptor (Homo sapiens, UniProt P21728)
Mu-type opioid receptor = Mu-type opioid receptor (Homo sapiens, UniProt P35372)
[7] = target: 3',5'-cyclic-AMP phosphodiesterase 4A (Homo sapiens, UniProt P27815); format: functional
Prothrombin = Prothrombin (Homo sapiens, UniProt P00734); format: functional
Histamine H3 receptor = Histamine H3 receptor (Homo sapiens, UniProt Q9Y5N1)
[8] = target: Voltage-gated inwardly rectifying potassium channel KCNH2 (Homo sapiens, UniProt Q12809); format: functional; settings: read-out: AC50
[9] = target: T5, Alpha-1A adrenergic receptor (Homo sapiens, UniProt P35348); format: functional, cell-based
T5 sequence (P35348 whole entry): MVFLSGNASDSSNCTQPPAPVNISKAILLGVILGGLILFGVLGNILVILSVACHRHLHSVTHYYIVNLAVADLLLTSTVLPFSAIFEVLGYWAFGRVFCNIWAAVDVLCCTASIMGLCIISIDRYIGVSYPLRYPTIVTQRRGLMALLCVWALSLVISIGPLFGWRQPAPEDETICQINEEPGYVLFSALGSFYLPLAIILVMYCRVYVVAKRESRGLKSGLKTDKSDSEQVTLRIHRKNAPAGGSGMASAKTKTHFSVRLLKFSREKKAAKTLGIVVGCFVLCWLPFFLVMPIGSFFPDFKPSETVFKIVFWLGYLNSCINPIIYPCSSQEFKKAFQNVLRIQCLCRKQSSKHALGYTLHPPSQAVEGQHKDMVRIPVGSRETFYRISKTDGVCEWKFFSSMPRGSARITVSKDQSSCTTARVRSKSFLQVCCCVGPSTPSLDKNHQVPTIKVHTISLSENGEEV
Note: assay procedure not described here.

D(1A) dopamine receptor, sequence (P21728 whole entry): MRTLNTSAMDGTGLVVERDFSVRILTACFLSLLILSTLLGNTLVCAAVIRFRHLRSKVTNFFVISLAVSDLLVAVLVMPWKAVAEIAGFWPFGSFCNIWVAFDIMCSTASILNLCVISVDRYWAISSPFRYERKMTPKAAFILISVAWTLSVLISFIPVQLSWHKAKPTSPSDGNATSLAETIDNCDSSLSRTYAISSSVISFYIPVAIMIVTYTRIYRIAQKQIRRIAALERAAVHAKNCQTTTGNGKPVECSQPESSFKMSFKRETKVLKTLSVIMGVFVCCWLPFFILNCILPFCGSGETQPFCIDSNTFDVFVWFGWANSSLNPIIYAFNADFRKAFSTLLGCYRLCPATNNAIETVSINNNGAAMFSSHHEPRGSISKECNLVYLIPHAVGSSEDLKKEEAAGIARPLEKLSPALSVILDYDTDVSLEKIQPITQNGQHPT
Histamine H3 receptor, sequence (Q9Y5N1 whole entry): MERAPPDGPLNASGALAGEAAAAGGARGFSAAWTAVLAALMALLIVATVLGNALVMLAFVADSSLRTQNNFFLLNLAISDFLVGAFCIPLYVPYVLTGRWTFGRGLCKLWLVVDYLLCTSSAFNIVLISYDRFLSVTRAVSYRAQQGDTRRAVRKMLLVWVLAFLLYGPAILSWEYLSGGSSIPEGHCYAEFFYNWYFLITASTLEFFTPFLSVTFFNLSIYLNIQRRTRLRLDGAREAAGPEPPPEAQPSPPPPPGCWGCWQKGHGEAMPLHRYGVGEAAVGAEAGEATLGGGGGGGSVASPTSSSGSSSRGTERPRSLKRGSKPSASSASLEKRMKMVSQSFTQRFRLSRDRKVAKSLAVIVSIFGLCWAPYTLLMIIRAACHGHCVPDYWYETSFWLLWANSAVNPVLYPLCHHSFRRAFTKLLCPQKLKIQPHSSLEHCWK
D(3) dopamine receptor, sequence (P35462 whole entry): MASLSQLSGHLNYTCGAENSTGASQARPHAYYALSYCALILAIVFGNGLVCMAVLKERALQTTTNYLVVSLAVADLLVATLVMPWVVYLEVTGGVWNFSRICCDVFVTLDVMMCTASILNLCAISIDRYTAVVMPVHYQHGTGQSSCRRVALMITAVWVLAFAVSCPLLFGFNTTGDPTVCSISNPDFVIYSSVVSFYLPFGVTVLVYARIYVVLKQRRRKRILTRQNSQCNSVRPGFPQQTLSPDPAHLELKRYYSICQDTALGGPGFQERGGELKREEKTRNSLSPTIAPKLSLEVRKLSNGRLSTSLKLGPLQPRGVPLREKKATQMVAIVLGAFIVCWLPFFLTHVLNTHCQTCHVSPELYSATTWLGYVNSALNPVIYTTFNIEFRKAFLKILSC
3',5'-cyclic-AMP phosphodiesterase 4A, sequence (P27815 whole entry): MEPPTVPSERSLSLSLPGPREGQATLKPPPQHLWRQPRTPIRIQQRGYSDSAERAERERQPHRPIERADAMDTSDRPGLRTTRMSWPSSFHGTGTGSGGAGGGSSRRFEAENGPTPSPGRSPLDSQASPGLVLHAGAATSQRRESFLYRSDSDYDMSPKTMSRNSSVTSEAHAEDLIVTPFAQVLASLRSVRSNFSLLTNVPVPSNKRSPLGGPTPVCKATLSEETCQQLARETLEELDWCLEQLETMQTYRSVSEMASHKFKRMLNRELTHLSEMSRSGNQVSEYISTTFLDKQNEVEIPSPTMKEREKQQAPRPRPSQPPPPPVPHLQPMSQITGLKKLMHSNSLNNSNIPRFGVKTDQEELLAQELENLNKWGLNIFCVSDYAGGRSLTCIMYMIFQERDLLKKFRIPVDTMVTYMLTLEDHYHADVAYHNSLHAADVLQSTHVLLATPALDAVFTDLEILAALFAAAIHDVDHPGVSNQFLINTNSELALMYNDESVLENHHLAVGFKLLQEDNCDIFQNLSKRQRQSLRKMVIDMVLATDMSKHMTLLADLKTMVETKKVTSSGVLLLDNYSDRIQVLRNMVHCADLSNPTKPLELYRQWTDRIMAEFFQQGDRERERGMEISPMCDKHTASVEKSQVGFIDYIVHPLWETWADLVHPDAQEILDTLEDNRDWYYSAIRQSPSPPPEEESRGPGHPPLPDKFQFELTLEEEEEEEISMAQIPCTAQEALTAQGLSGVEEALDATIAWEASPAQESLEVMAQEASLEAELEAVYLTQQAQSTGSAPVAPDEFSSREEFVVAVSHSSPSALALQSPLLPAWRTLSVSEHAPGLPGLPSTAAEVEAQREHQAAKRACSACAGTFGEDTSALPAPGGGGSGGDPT
Sodium-dependent dopamine transporter, sequence (Q01959 whole entry): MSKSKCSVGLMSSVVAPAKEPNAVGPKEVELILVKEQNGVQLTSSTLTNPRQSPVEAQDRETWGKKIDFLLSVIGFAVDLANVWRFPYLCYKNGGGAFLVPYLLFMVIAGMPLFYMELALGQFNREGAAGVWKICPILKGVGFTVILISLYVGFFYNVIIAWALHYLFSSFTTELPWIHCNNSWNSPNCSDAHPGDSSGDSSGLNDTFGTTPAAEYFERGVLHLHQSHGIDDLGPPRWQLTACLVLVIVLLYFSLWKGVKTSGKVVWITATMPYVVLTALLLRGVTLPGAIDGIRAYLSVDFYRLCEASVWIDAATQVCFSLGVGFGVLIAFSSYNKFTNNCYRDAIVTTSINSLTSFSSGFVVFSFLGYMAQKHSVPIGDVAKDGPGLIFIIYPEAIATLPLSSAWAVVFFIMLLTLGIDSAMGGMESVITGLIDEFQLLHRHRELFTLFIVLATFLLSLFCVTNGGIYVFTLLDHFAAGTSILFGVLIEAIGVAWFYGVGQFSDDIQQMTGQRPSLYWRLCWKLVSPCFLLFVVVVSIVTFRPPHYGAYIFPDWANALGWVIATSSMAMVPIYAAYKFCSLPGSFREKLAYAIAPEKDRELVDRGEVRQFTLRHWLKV
Voltage-gated inwardly rectifying potassium channel KCNH2, sequence (Q12809 whole entry): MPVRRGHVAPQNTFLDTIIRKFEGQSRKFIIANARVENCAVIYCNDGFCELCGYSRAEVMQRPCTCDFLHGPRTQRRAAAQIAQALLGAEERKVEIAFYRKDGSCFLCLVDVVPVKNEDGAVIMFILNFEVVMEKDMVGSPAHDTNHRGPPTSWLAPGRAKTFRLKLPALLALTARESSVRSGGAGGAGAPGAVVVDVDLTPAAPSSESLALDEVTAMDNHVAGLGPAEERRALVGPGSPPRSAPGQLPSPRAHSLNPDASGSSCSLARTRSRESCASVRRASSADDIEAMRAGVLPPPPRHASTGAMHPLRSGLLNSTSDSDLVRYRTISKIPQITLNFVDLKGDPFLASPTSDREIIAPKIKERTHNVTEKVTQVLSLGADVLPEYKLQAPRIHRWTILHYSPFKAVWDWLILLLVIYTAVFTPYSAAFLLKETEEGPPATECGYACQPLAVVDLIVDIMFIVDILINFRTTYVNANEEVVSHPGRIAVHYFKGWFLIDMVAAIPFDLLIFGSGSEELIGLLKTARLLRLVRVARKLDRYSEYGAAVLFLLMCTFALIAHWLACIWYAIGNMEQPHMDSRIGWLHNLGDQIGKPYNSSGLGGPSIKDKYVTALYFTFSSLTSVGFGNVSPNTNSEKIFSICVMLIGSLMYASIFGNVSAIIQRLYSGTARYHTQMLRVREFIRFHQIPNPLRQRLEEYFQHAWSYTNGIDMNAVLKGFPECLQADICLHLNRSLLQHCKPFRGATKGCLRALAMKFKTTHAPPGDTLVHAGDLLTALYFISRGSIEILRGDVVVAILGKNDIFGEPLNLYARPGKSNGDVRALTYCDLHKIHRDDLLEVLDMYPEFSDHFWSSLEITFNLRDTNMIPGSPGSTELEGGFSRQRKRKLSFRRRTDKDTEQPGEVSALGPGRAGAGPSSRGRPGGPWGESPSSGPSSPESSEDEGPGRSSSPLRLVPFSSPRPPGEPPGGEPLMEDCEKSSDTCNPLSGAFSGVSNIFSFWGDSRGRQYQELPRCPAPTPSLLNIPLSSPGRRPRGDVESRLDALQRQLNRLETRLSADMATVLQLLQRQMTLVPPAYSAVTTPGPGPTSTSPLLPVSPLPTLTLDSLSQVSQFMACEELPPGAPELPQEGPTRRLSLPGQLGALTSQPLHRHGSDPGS
Mu-type opioid receptor, sequence (P35372 whole entry): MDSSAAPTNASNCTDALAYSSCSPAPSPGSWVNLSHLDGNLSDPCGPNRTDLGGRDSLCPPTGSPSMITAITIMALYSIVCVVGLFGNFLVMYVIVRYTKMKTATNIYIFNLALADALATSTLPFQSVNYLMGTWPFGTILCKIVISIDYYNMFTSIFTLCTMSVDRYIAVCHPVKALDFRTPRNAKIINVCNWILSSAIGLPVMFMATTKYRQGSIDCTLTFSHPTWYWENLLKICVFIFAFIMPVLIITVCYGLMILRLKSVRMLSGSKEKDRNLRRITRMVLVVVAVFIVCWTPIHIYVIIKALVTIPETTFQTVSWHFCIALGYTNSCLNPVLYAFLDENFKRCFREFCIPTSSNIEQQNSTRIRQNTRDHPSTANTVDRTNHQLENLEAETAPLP
Sodium-dependent noradrenaline transporter, sequence (P23975 whole entry): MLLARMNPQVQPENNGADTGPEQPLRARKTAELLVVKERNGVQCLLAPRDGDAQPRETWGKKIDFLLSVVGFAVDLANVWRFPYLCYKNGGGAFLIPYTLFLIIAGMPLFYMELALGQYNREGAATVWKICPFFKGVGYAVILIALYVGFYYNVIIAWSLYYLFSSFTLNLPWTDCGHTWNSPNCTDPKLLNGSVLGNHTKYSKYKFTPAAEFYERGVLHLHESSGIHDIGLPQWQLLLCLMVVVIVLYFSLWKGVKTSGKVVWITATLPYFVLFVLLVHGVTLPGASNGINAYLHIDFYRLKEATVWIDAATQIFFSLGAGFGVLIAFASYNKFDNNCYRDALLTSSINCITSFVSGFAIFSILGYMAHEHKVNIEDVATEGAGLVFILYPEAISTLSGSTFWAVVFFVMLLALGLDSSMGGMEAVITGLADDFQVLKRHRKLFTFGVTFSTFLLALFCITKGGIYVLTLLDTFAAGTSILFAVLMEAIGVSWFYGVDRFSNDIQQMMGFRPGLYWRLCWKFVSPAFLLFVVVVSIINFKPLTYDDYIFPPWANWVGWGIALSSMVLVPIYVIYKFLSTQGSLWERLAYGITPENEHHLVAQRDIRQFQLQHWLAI

Compound	AC50 [2] [µM]	AC50 [3] [µM]	AC50 [4] [µM]	AC50 [5] [µM]	AC50 (D(1A) dopamine receptor) [µM]	AC50 (Mu-type opioid receptor) [µM]	AC50 [7] [µM]	AC50 (Prothrombin) [µM]	AC50 (Histamine H3 receptor) [µM]	AC50 [8] [µM]	further results
CCCCCCCC(=O)N[C@H](CN1CCCC1)[C@H](O)c1ccc2c(c1)OCCO2	> 30	> 30	> 30	> 30	> 30	14.1	> 30	> 30	> 30	–	AC50 [1]: 14.3 µM; AC50 [6]: > 30 µM; AC50 (D(3) dopamine receptor): > 30 µM
C[C@]12CC[C@H](O)CC1=CC[C@@H]1[C@@H]2CC[C@]2(C)C(c3cccnc3)=CC[C@@H]12 [ABIRATERONE]	–	–	–	–	–	–	–	–	–	> 30	–
CC(=O)OCC[N+](C)(C)C [ACETYLCHOLINE]	> 30	> 30	> 30	> 30	> 30	> 30	> 30	> 30	> 30	> 30	AC50 [1]: > 30 µM; AC50 [9]: > 30 µM; AC50 (D(3) dopamine receptor): > 30 µM
O=C(Nc1nc(-c2cc(Cl)cs2)c(N2CCN(C3CCCCC3)CC2)s1)c1cnc(N2CCC(C(=O)O)CC2)c(Cl)c1 [AVATROMBOPAG]	> 30	> 30	> 30	> 30	> 30	> 30	> 30	> 30	> 30	12.4	AC50 [1]: > 30 µM; AC50 [6]: > 30 µM; AC50 (D(3) dopamine receptor): > 30 µM
CN(C)C(=O)Oc1cc(OC(=O)N(C)C)cc(C(O)CNC(C)(C)C)c1 (centres undefined) [BAMBUTEROL]	–	–	–	–	–	–	–	–	–	16	–
CO[C@@]1(NC(=O)CSCC#N)C(=O)N2C(C(=O)O)=C(CSc3nnnn3C)CS[C@@H]21 [CEFMETAZOLE]	> 30	> 30	> 30	> 30	> 30	> 30	> 30	> 30	> 30	> 30	AC50 [1]: > 30 µM; AC50 [6]: > 30 µM; AC50 (D(3) dopamine receptor): > 30 µM
NS(=O)(=O)c1cc(C2(O)NC(=O)c3ccccc32)ccc1Cl (centres undefined) [CHLORTHALIDONE]	–	–	–	–	–	–	–	–	–	> 30	–
Oc1c(I)cc(Cl)c2cccnc12 [CLIOQUINOL]	> 30	> 30	2.79	> 30	> 30	> 30	> 30	> 30	> 30	> 30	AC50 [1]: > 30 µM; AC50 [6]: > 30 µM; AC50 (D(3) dopamine receptor): > 10 µM
C[C@@H]1CCC[C@H](C)N1NC(=O)c1ccc(Cl)c(S(N)(=O)=O)c1 [CLOPAMIDE]	–	–	–	–	–	–	–	–	–	> 30	–
COc1ccc2c(c1)[C@]13CCCC[C@@H]1[C@H](C2)N(C)CC3 [DEXTROMETHORPHAN]	–	–	–	–	–	–	–	–	–	21.1	–
O=c1oc2ccccc2c(O)c1Cc1c(O)c2ccccc2oc1=O [DICUMAROL]	–	–	–	–	–	–	–	–	–	> 30	–
O=C(O)CSCC(=O)NC1CCSC1=O (centres undefined) [ERDOSTEINE]	–	–	–	–	–	–	–	–	–	> 30	–
COc1cccc(N(C)C(=S)Oc2ccc3c(c2)CCCC3)n1 [LIRANAFTATE]	–	–	–	–	–	–	–	–	–	> 30	–
C#C[C@]1(O)CC[C@H]2[C@@H]3CCc4cc(OC)ccc4[C@H]3CC[C@@]21C [MESTRANOL]	–	–	–	–	–	–	–	–	–	> 30	–
CCC(=O)O[C@@H]1CC(=O)O[C@H](C)C/C=C/C=C/[C@H](OC(C)=O)[C@H](C)C[C@H](CC=O)[C@H](O[C@@H]2O[C@H](C)[C@@H](O[C@H]3C[C@@](C)(OC(C)=O)[C@@H](OC(=O)CC)[C@H](C)O3)[C@H](N(C)C)[C@H]2O)[C@H]1OC [MIOCAMYCIN]	> 30	> 30	> 30	> 30	> 30	> 30	> 30	> 30	> 30	–	AC50 [1]: > 30 µM; AC50 [6]: > 30 µM; AC50 (D(3) dopamine receptor): > 30 µM
N=C(N)c1ccc2cc(OC(=O)c3ccc(N=C(N)N)cc3)ccc2c1 [NAFAMOSTAT]	–	–	–	–	–	–	–	–	–	3.3	–
c1ccc2c(CC3=NCCN3)cccc2c1 [NAPHAZOLINE]	0.022	> 30	> 30	> 30	> 30	8.37	> 30	> 30	> 30	> 30	AC50 [1]: 0.114 µM; AC50 [6]: > 30 µM; AC50 [9]: 0.0014 µM
N[C@@H](Cc1c[nH]c2ccc(O)cc12)C(=O)O [OXITRIPTAN]	> 30	> 30	> 30	> 30	> 30	> 30	> 30	> 30	> 30	> 30	AC50 [6]: > 30 µM; AC50 [9]: > 30 µM; AC50 (D(3) dopamine receptor): > 30 µM
O=C(O)c1cc(O)c2c3nc4ccccc4oc-3cc(=O)c2n1 [PIRENOXINE]	–	–	–	–	–	–	–	–	–	> 30	–
NS(=O)(=O)c1cc(C(=O)O)cc(N2CCCC2)c1Oc1ccccc1 [PIRETANIDE]	–	–	–	–	–	–	–	–	–	> 30	–
CNCCCC1c2ccccc2C=Cc2ccccc21 [PROTRIPTYLINE]	–	–	–	–	–	–	–	–	–	1	–
CC(C)=CCOc1ccc(/C=C/C(=O)c2ccc(OCC=C(C)C)cc2OCC(=O)O)cc1 [SOFALCONE]	–	–	–	–	–	–	–	–	–	> 30	–
O=C(CCCN1CCC2(CC1)C(=O)NCN2c1ccccc1)c1ccc(F)cc1 [SPIPERONE]	–	–	–	–	–	–	–	–	–	0.22	–
CN(C)c1cc(NC(=O)CNC(C)(C)C)c(O)c2c1C[C@H]1C[C@H]3[C@H](N(C)C)C(O)=C(C(N)=O)C(=O)[C@@]3(O)C(O)=C1C2=O [TIGECYCLINE]	–	–	–	–	–	–	–	–	–	> 30	–
OCCN1CCN(CC/C=C2/c3ccccc3Sc3ccc(Cl)cc32)CC1 [ZUCLOPENTHIXOL]	–	–	–	–	–	–	–	–	–	0.9	–
